# Target: IDO1 (Homo sapiens, UniProt P14902)
# Assay: IDO1 Cellular Assay in HeLa Cells Stimulated with IFNγ
# Format: cell-based
# Conditions: read-out: HeLa Cell Potency, IC50
# Chain of IDO1 (P14902 whole entry): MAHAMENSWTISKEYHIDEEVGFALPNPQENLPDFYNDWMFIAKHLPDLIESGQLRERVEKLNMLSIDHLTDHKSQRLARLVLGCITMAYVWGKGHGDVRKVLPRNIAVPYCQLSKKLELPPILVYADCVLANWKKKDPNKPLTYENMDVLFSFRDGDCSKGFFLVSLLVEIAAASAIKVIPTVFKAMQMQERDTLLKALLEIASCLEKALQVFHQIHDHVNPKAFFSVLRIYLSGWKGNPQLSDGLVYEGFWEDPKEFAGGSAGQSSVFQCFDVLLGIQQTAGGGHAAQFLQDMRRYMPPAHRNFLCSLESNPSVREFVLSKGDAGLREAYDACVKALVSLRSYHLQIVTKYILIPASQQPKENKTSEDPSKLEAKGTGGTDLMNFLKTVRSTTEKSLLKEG
row,Structure (SMILES),IC50 [nM]
1,"Cc1cccc(N2CCN(C(=O)Cn3nc(C(=O)N4CC5CC4CC5O)c4c3CCC4)CC2)c1C (stereo not shown) [Example 96, 1-[4-(2,3-dimethylphenyl)piperazin-1-yl]-2-[3-(5-hydroxy-2-azabicyclo[2.2.1]heptane-2-carbonyl)-5,6-dihydrocyclopenta[c]pyrazol-1(4H)-yl]ethan-1-one]",13.2
2,"Cc1cccc(N2CCN(C(=O)Cn3nc(C(=O)N4CC[C@H](O)[C@H](F)C4)c4c3CCC4)CC2)c1C [Example 97, 1-[4-(2,3-dimethylphenyl)piperazin-1-yl]-2-{3-[(3R,4S)-3-fluoro-4-hydroxypiperidine-1-carbonyl]-5,6-dihydrocyclopenta[c]pyrazol-1(4H)-yl}ethan-1-one]",17.1
3,"Cc1cccc(N2CCN(C(=O)Cn3nc(C(=O)N4CC[C@@H](O)[C@@H](F)C4)c4c3CCC4)CC2)c1C [Example 98, 1-[4-(2,3-dimethylphenyl)piperazin-1-yl]-2-{3-[(3S,4R)-3-fluoro-4-hydroxypiperidine-1-carbonyl]-5,6-dihydrocyclopenta[c]pyrazol-1(4H)-yl}ethan-1-one]",12.4
4,"Cc1cccc(N2CCN(C(=O)Cn3nc(C(=O)N4CC[C@H](O)[C@H](C)C4)c4c3CCC4)CC2)c1C [Example 99, 1-[4-(2,3-dimethylphenyl)piperazin-1-yl]-2-{3-[(3R,4S)-4-hydroxy-3-methylpiperidine-1-carbonyl]-5,6-dihydrocyclopenta[c]pyrazol-1(4H)-yl}ethan-1-one]",3.19
5,"Cc1cccc(N2CCN(C(=O)Cn3nc(C(=O)N4C[C@H]5CC[C@H](O)[C@H]5C4)c4c3CCC4)CC2)c1C [Example 100, 1-[4-(2,3-dimethylphenyl)piperazin-1-yl]-2-{3-[(3aR,4S,6aS)-4-hydroxyhexahydrocyclopenta[c]pyrrole-2(1H)-carbonyl]-5,6-dihydrocyclopenta[c]pyrazol-1(4H)-yl}ethan-1-one]",10.7
6,"Cc1cccc(N2CCN(C(=O)Cn3nc(C(=O)N4CCC(F)(CO)CC4)c4c3CCC4)CC2)c1C [Example 102, 1-[4-(2,3-dimethylphenyl)piperazin-1-yl]-2-{3-[4-fluoro-4-(hydroxymethyl)piperidine-1-carbonyl]-5,6-dihydrocyclopenta[c]pyrazol-1(4H)-yl}ethan-1-one]",4.38
7,"Cc1cccc(N2CCN(C(=O)Cn3nc(C(=O)N4CCOC(CO)C4)c4c3CCC4)CC2)c1C (stereo not shown) [Example 103, 1-[4-(2,3-dimethylphenyl)piperazin-1-yl]-2-{3-[2-(hydroxymethyl)morpholine-4-carbonyl]-5,6-dihydrocyclopenta[c]pyrazol-1(4H)-yl}ethan-1-one]",18.3
8,"Cc1cccc(N2CCN(C(=O)Cn3nc(C(=O)N4CC[C@@H](O)[C@@H](O)C4)c4c3CCC4)CC2)c1C [Example 104, 2-{3-[(3S,4R)-3,4-dihydroxypiperidine-1-carbonyl]-5,6-dihydrocyclopenta[c]pyrazol-1(4H)-yl}-1-[4-(2,3-dimethylphenyl)piperazin-1-yl]ethan-1-one]",49.6
9,"Cc1cccc(N2CCN(C(=O)Cn3nc(C(=O)N4CC5CCC4CO5)c4c3CCC4)CC2)c1C (stereo not shown) [Example 105, 1-[4-(2,3-dimethylphenyl)piperazin-1-yl]-2-[3-(2-oxa-5-azabicyclo[2.2.2]octane-5-carbonyl)-5,6-dihydrocyclopenta[c]pyrazol-1(4H)-yl]ethan-1-one]",34.5
10,"Cc1cccc(N2CCN(C(=O)Cn3nc(C(=O)N4CCC5(CC4)CC5(F)F)c4c3CCC4)CC2)c1C [Example 110, 2-[3-(1,1-difluoro-6-azaspiro[2.5]octane-6-carbonyl)-5,6-dihydrocyclopenta[c]pyrazol-1(4H)-yl]-1-[4-(2,3-dimethylphenyl)piperazin-1-yl]ethan-1-one]",5.39
11,"Cc1cccc(N2CCN(C(=O)Cn3nc(C(=O)N4CCC(O)(c5ccccc5)CC4)c4c3CCC4)CC2)c1C [Example 111, 1-[4-(2,3-dimethylphenyl)piperazin-1-yl]-2-[3-(4-hydroxy-4-phenylpiperidine-1-carbonyl)-5,6-dihydrocyclopenta[c]pyrazol-1(4H)-yl]ethan-1-one]",28.6
12,"Cc1cccc(N2CCN(C(=O)Cn3nc(C(=O)N4CCC(O)C5CCCCC54)c4c3CCC4)CC2)c1C (stereo not shown) [Example 112, 1-[4-(2,3-dimethylphenyl)piperazin-1-yl]-2-[3-(4-hydroxyoctahydroquinoline-1(2H)-carbonyl)-5,6-dihydrocyclopenta[c]pyrazol-1(4H)-yl]ethan-1-one]",3.6
13,"Cc1cccc(N2CCN(C(=O)Cn3nc(C(=O)N4CCC(O)(CN(C)C)CC4)c4c3CCC4)CC2)c1C [Example 113, 2-[3-{4-[(dimethylamino)methyl]-4-hydroxypiperidine-1-carbonyl}-5,6-dihydrocyclopenta[c]pyrazol-1(4H)-yl]-1-[4-(2,3-dimethylphenyl)piperazin-1-yl]ethan-1-one]",372
14,"Cc1cccc(N2CCN(C(=O)Cn3nc(C(=O)N4CCC5(CC4)COCC5O)c4c3CCC4)CC2)c1C (stereo not shown) [Example 114, 1-[4-(2,3-dimethylphenyl)piperazin-1-yl]-2-[3-(4-hydroxy-2-oxa-8-azaspiro[4.5]decane-8-carbonyl)-5,6-dihydrocyclopenta[c]pyrazol-1(4H)-yl]ethan-1-one]",6.33
15,"Cc1cccc(N2CCN(C(=O)Cn3nc(C(=O)N4[C@@H](C)COC[C@@H]4C)c4c3CCC4)CC2)c1C [Example 115, 2-{3-[(3S,5S)-3,5-dimethylmorpholine-4-carbonyl]-5,6-dihydrocyclopenta[c]pyrazol-1(4H)-yl}-1-[4-(2,3-dimethylphenyl)piperazin-1-yl]ethan-1-one]",176
16,"Cc1cccc(N2CCN(C(=O)Cn3nc(C(=O)N4CC5CCC4CC5)c4c3CCC4)CC2)c1C [Example 116, 2-[3-(2-azabicyclo[2.2.2]octane-2-carbonyl)-5,6-dihydrocyclopenta[c]pyrazol-1(4H)-yl]-1-[4-(2,3-dimethylphenyl)piperazin-1-yl]ethan-1-one]",11.6
17,"Cc1cccc(N2CCN(C(=O)Cn3nc(C(=O)N4CCN(C(=O)C(C)(C)O)CC4)c4c3CCC4)CC2)c1C [Example 117, 1-[4-(1-{2-[4-(2,3-dimethylphenyl)piperazin-1-yl]-2-oxoethyl}-1,4,5,6-tetrahydrocyclopenta[c]pyrazole-3-carbonyl)piperazin-1-yl]-2-hydroxy-2-methylpropan-1-one]",15.1
18,Cc1cccc(N2CCN(C(=O)Cn3nc(C(=O)N4CCCC(O)CC4)c4c3CCC4)CC2)c1C (stereo not shown) [Example 118],13.9
19,"Cc1cccc(N2CCN(C(=O)Cn3nc(C(=O)N4CCC(O)CC4(C)C)c4c3CCC4)CC2)c1C (stereo not shown) [Example 119, 1-[4-(2,3-dimethylphenyl)piperazin-1-yl]-2-[3-(4-hydroxy-2,2-dimethylpiperidine-1-carbonyl)-5,6-dihydrocyclopenta[c]pyrazol-1(4H)-yl]ethan-1-one]",33.3
20,"Cc1cccc(N2CCN(C(=O)Cn3nc(C(=O)N4CCC5(CC4)CC(=O)N(C)C5)c4c3CCC4)CC2)c1C [Example 121, 8-(1-{2-[4-(2,3-dimethylphenyl)piperazin-1-yl]-2-oxoethyl}-1,4,5,6-tetrahydrocyclopenta[c]pyrazole-3-carbonyl)-2-methyl-2,8-diazaspiro[4.5]decan-3-one]",17.1
21,"Cc1cccc(N2CCN(C(=O)Cn3nc(C(=O)N4CC[C@H](CO)[C@H](F)C4)c4c3CCC4)CC2)c1C [Example 122, 1-[4-(2,3-dimethylphenyl)piperazin-1-yl]-2-{3-[(3S,4R)-3-fluoro-4-(hydroxymethyl)piperidine-1-carbonyl]-5,6-dihydrocyclopenta[c]pyrazol-1(4H)-yl}ethan-1-one]",10.3
22,"Cc1cccc(N2CCN(C(=O)Cn3nc(C(=O)N4CCN(C5CC5)CC4)c4c3CCC4)CC2)c1C [Example 123, 2-[3-(4-cyclopropylpiperazine-1-carbonyl)-5,6-dihydrocyclopenta[c]pyrazol-1(4H)-yl]-1-[4-(2,3-dimethylphenyl)piperazin-1-yl]ethan-1-one]",10.1
23,"Cc1cccc(N2CCN(C(=O)Cn3nc(C(=O)N4CC5C(CO)C5C4)c4c3CCC4)CC2)c1C (stereo not shown) [Example 131, 1-[4-(2,3-dimethylphenyl)piperazin-1-yl]-2-{3-[6-(hydroxymethyl)-3-azabicyclo[3.1.0]hexane-3-carbonyl]-5,6-dihydrocyclopenta[c]pyrazol-1(4H)-yl}ethan-1-one]",23.2
24,"Cc1cccc(N2CCN(C(=O)Cn3nc(C(=O)N4CCC(n5cncn5)CC4)c4c3CCC4)CC2)c1C [Example 132, 1-[4-(2,3-dimethylphenyl)piperazin-1-yl]-2-{3-[4-(1H-1,2,4-triazol-1-yl)piperidine-1-carbonyl]-5,6-dihydrocyclopenta[c]pyrazol-1(4H)-yl}ethan-1-one]",4.55
25,"Cc1cccc(N2CCN(C(=O)Cn3nc(C(=O)N4CCC5(CC4)NC(=O)NC5=O)c4c3CCC4)CC2)c1C [Example 133, 8-(1-{2-[4-(2,3-dimethylphenyl)piperazin-1-yl]-2-oxoethyl}-1,4,5,6-tetrahydrocyclopenta[c]pyrazole-3-carbonyl)-1,3,8-triazaspiro[4.5]decane-2,4-dione]",141
26,"CC1=NC2(CCN(C(=O)c3nn(CC(=O)N4CCN(c5cccc(C)c5C)CC4)c4c3CCC4)CC2)C(=O)N1 [Example 134, 8-(1-{2-[4-(2,3-dimethylphenyl)piperazin-1-yl]-2-oxoethyl}-1,4,5,6-tetrahydrocyclopenta[c]pyrazole-3-carbonyl)-2-methyl-1,3,8-triazaspiro[4.5]dec-1-en-4-one]",15.8
27,"Cc1cccc(N2CCN(C(=O)Cn3nc(C(=O)N4CCC5(CC4)C[C@H](C)OC5=O)c4c3CCC4)CC2)c1C [Example 135, (3S)-8-(1-{2-[4-(2,3-dimethylphenyl)piperazin-1-yl]-2-oxoethyl}-1,4,5,6-tetrahydrocyclopenta[c]pyrazole-3-carbonyl)-3-methyl-2-oxa-8-azaspiro[4.5]decan-1-one]",38.5
28,"CNC(=O)C1CCN(C(=O)c2nn(CC(=O)N3CCN(c4cccc(C)c4C)CC3)c3c2CCC3)CC1 [Example 136, 1-(1-{2-[4-(2,3-dimethylphenyl)piperazin-1-yl]-2-oxoethyl}-1,4,5,6-tetrahydrocyclopenta[c]pyrazole-3-carbonyl)-N-methylpiperidine-4-carboxamide]",21.2

# From patent publication US12264134B2 (Merck Sharp & Dohme LLC, priority 2018, dated 2025)
